Data taken from patent EP2802310B1, “NEW USE OF ZERUMBONE AND COMPOSITIONS COMPRISING ZERUMBONE” (Sederma, priority 2012, dated 2013).
Where two headings read alike, the source gives them in different places.

Columns and labels:
[1] = test system: Murine 3T3-L1 fibroblasts; experiment: Anti-differentiating effect on adipocytes, intracellular G3PDH activity, 3T3-L1 line; assay type: cell-based
Description: Murine 3T3-L1 fibroblasts were seeded and induced to differentiate into adipocytes for 6 days with specific inducers in the presence of the evaluated products. When mature adipocytes were obtained, layers were crushed and intracellular G3PDH ([…]) activity is measured. A cell quantification test (Hoechst) on the same extracts complements the assay.

Mature human adipocytes = experiment: Lipolytic effect, released glycerol after 3 hours; assay type: cell-based; conditions: Adipocyte, Zerumbone 6ppm, contact time 3h, read-out: released glycerol, versus negative control
Description: In a first test, mature human adipocytes were treated with the product to evaluate for 3 hours, then titration of the released glycerol, reflecting lipolysis, was measured in the medium.

mature adipocytes = experiment: Intracellular triglyceride quantity in mature adipocytes; assay type: cell-based, human; conditions: Zerumbone 6ppm
Description: Mature human adipocytes were treated with zerumbone to evaluate daily for 3 days. A daily titration of the released glycerol, reflecting lipolysis, was measured in the medium, before the media were changed in order to monitor the long-term effect.
Table 5: comparison of the intracellula triglyceride quantity found in mature adipocytes
Table 20: Comparison of the intracellular triglyceride content found in the mature adipocytes; compared effect of zerumbone, caffeine and of a mixture of zerumbone and caffeine.

HO-1 = HO-1 synthesis by ELISA in adipocyte lysates; assay type: cell-based, Human; conditions: for activation at 3 ppm / activation at 5 ppm: Homo sapiens, Adipocyte, read-out: [HO-1] % Var / control
Description: HO-1 enzymes catalyse the degradation of heme into biliverdin, iron, and carbon monoxide. Its overexpression is associated with a decrease in the size of adipocytes in adipose tissue, an increase of adiponectin secretion and a decrease of IL-6 and TNF secretion and is associated with weight loss.
Human preadipocytes were seeded and induced to differentiate at confluence in the presence of a cocktail of specific inducers and the products to evaluate. After 10 days, the layers were crushed and the HO-1 content was measured in these lysates by ELISA. Furthermore after 10 days of differentiation, matiure adipocytes were placed in contact with the products for 48h and the HO-1 content was also measured in the cellular lysates. In parallel, an estimation of the cell quantification is realized on these two assays (Hoechst test).

In the case of `C/C1=C\CC(C)(C)/C=C/C(=O)/C(C)=C/CC1` [Zerumbone, 2E, 6E, 9E-Humulatrien-8-one], the “[G3PDH]” value ([1]; 1ppm, differentiation for 6 days) is reported as 304.2 +/- 9.9 mU/ 10^6 cell, the cytotoxicity ([1]; 3T3-L1, tested doses) is reported as “without apparent cytotoxicity” and the “[G3PDH]” value ([1]; 3ppm, differentiation for 6 days) is reported as 79.3 +/- 43.6 mU/ 10^6 cell. For the same compound, the “differentiation of 3T3-L1” value ([1]; 5ppm) was “total inhibition”, the “[G3PDH]” value ([1]; 5ppm, differentiation for 6 days) was 3.4+/-10.3 mU/ 10^6 cell and the inhibition at 1 ppm ([1]; Mus musculus, 3T3-L1, 144 h, 1ppm, differentiation for 6 days, read-out: [G3PDH] % Var / control) was 53%. The inhibition at 3 ppm ([1]; Mus musculus, 3T3-L1, 144 h, 3ppm, differentiation for 6 days, read-out: [G3PDH] % Var / control) was 88%, the inhibition at 5 ppm ([1]; Mus musculus, 3T3-L1, 144 h, 5ppm, differentiation for 6 days, read-out: [G3PDH] % Var / control) was 99% and the activation at 6 ppm (Mature human adipocytes) was 0%. The inhibition at 6 ppm (mature adipocytes; Homo sapiens, Adipocyte, 72 h, read-out: Triglycerides Variation (%)) was 37%, the Triglycerides (mature adipocytes) was 4947 ± 236 µM/10^6cell and the “Triglycerides Variation (%)” value (mature adipocytes; 4320 min) was -37%; p<0.01. For the same compound, the “[HO-1]” value (HO-1; 3ppm, adipocytes in the course of differenciation (10days)) was 51658 +/- 7985 ng/ 10^6 cell, the “[HO-1]” value (HO-1; 3ppm, mature adipocytes (48h)) was 70229 +/- 10638 ng/ 10^6 cell and the “[HO-1]” value (HO-1; 5ppm, adipocytes in the course of differenciation (10days)) was 67243 +/- 11428 ng/ 10^6 cell. For the same compound, the “[HO-1]” value (HO-1; 5ppm, mature adipocytes (48h)) was 96700 +/- 4548 ng/ 10^6 cell, the activation at 3 ppm (HO-1; 240 h, 3ppm, adipocytes in the course of differenciation (10days)) was 29% and the activation at 5 ppm (HO-1; 240 h, 5ppm, adipocytes in the course of differenciation (10days)) was 68%. For the same compound, the activation at 3 ppm (HO-1; 3ppm, mature adipocytes (48h)) was 142% and the activation at 5 ppm (HO-1; 5ppm, mature adipocytes (48h)) was 233%.
